Data: patent US20260035367A1 (Celgene Corporation, priority 2021, published 2026)
Where two headings read alike, the source gives them in different places.

Legend:
[1] = biological target: T1, Recombinant human PKC-theta (His-tagged 362-706) (Homo sapiens, UniProt Q04759); test: PKC-theta inhibition assay (HTRF KinEASE kit); format: biochemical; details: ATP 6.5 μM, STK substrate 525 nM
T1 construct: Recombinant human PKC-theta (His-tagged 362-706); His
Summary of the method: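 IC50 values were from 4-parameter logistic fits of percent inhibition, based on acceptor/donor HTRF ratios over 10 semi-log compound doses. Kinase reactions, started with substrate plus ATP, ran 30 min at 25 °C in buffer supplemented with 10 mM MgCl2, 1 mM DTT and 0.1% Tween 20; detection lasted 2 h.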

[2] = biological target: T2, Recombinant human PKC-delta (His-tagged 345-676) (Homo sapiens, UniProt Q05655); test: PKC-delta inhibition assay (HTRF KinEASE kit); format: biochemical; details: ratio, PKC-theta vs PKC-delta HTRF; for PKC-theta/PKC-delta selectivity (binned): binned A to G
T2 construct: PKC-delta (His-tagged 345-676); His

[3] = tested on: IL-2 secretion by human effector memory T cells (TEM); test: Effector memory T cells IL-2 release assay (CD3/CD28 stimulation, HTRF IL-2 detection); format: cell-based; details: 24 h; for IC50: Homo sapiens, T-cell
Summary of the method: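 IL-2 released into the supernatant was quantified by HTRF after 24 h at 37 °C in 5% CO2. The cells were stimulated primary human TEM from donor buffy coats, treated with a 10-point semi-log compound series (0.1% DMSO final, triplicates).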

[4] = binned A to H, read-out: PKC-theta HTRF pIC50 (binned) (converted)
[5] = read-out: PKC-theta HTRF pIC50 (converted)
[6] = binned A to G, read-out: PKC-theta IL2 pIC50 (binned) (converted)
[7] = read-out: PKC-theta IL2 pIC50 (converted)

T1 sequence (Q04759 362-706): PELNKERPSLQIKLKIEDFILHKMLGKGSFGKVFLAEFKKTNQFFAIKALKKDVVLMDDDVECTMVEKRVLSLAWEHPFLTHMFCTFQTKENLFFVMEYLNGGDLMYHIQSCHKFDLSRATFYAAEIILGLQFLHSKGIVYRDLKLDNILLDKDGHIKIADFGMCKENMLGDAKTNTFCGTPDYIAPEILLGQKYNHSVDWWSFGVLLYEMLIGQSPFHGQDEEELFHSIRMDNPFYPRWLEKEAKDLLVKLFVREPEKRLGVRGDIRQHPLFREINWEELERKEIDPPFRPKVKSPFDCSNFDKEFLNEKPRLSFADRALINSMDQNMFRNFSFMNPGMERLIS
T2 sequence (Q05655 345-676): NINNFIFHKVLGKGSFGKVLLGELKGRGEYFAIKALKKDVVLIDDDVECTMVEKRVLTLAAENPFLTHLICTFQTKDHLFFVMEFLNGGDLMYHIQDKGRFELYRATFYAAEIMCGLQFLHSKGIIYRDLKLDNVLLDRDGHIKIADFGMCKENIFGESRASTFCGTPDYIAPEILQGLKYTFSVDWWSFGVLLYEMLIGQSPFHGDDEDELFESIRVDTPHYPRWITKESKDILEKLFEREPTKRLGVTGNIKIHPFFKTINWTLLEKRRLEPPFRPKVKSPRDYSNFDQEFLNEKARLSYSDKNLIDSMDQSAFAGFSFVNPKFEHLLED

Row | Compound | IC50 [1, 4] [nM] | IC50 [1, 5] [nM] | PKC-theta/PKC-delta selectivity [2] | PKC-theta/PKC-delta selectivity (binned) [2] | IC50 [3, 6] [nM] | IC50 [3, 7] [nM] | PKC-theta IL2 pIC50 [3] | PKC-theta IL2 pIC50 (binned) ([3]; binned A to G)
1 | O=c1[nH]c2nccc(-c3cccc(N4CCNCC4)c3)c2o1 [Example 6] | > 1000 | 1000 | 2 | F (a ratio of between 1 and 5) | > 1000 | 10000 |  | 
2 | CN1CCN(c2cccc(-c3ccnc4[nH]c(=O)[nH]c34)c2)CC1 [Example 17] | > 1000 | 5010 | 2 | F (a ratio of between 1 and 5) | > 1000 | 10000 |  | 
3 | C[C@H]1CN(c2ccc(Cl)c(-c3ccnc4c3[C@](C)(O)C(=O)N4)c2)CCN1 [Example 107] | 31.6 to 100 | 63.1 | 7 | E (a ratio of between 5 and 10) | 316 to 1000 | 501 |  | 
4 | C[C@H]1CNCCN1c1cccc(-c2ccnc3c2C(C)(C)C(=O)N3)c1 [Example 39] | 100 to 316 | 200 | 1 | F (a ratio of between 1 and 5) | > 1000 | 2510 |  | 
5 | CC[C@]1(C)C(=O)Nc2nccc(-c3cc(C(C)(F)F)cc(N4CCCNCC4)n3)c21 (single isomer, unassigned) [Example 205] | 3.16 to 10 | 3.98 | 13 | D (a ratio of between 10 and 20) | 31.6 to 100 | 79.4 |  | 
6 | C[C@@H]1CN(c2cc(C(C)(F)F)cc(-c3ccnc4c3C(C)(C)C(=O)N4)n2)CCCN1 [Example 204] | 3.16 to 10 | 6.31 | 24 | C (a ratio of between 20 and 30) | 100 to 316 | 126 |  | 
7 | CC1(C)C(=O)Nc2ncc(C#N)c(-c3cc(F)cc(N4CCNCC4)c3)c21 [Example 64] | 316 to 1000 | 501 | 2 | F (a ratio of between 1 and 5) | > 1000 | 5010 |  | 
8 | CC1C(=O)Nc2nccc(-c3cc(F)cc(N4CCNCC4)c3)c21 (stereo not drawn) [Example 18] | 10 to 31.6 | 25.1 | 3 | F (a ratio of between 1 and 5) | 100 to 316 | 200 |  | 
9 | CC1(C)C(=O)Nc2nccc(-c3cc(C(F)(F)F)cc(N4CCN[C@@H](CO)C4)n3)c21 [Example 83] | 1 to 3.16 | 3.16 | 20 | D (a ratio of between 10 and 20) | 31.6 to 100 | 79.4 |  | 
10 | O=c1[nH]c2nccc(-c3cccc(N4CCNCC4)c3)c2[nH]1 [Example 2] | 316 to 1000 | 501 | 2 | F (a ratio of between 1 and 5) | > 1000 | 10000 |  | 
11 | CC[C@]1(C)C(=O)Nc2nccc(-c3cc(C(C)(F)F)cc(N4CCNC[C@H]4C)n3)c21 (single isomer, unassigned) [Example 201] | 0.316 to 1 | 0.501 | 18 | D (a ratio of between 10 and 20) | 3.16 to 10 | 7.94 |  | 
12 | CC[C@]1(O)C(=O)Nc2nccc(-c3cc(C(F)(F)F)cc(N4CCNC[C@H]4C)n3)c21 (single isomer, unassigned) [Example 167] | 100 to 316 | 316 | 33 | B (a ratio of between 30 and 50) | > 1000 | 2510 |  | 
13 | CC1(C)C(=O)Nc2nccc(-c3cccc(N4CCNCC4)n3)c21 [Example 38] | 3.16 to 10 | 10 | 4 | F (a ratio of between 1 and 5) | 100 to 316 | 158 |  | 
14 | CC[C@@]1(C)C(=O)Nc2nccc(-c3cc(C(C)(F)F)cc(N4CCNC[C@H]4C)n3)c21 (single isomer, unassigned) [Example 202] | 3.16 to 10 | 3.98 | 22 | C (a ratio of between 20 and 30) | 31.6 to 100 | 50.1 |  | 
15 | CC1(C)C(=O)Nc2nccc(-c3cccc(S(=O)(=O)N4CCNCC4)c3)c21 [Example 42] | > 1000 | 2000 | 1 | F (a ratio of between 1 and 5) | > 1000 | 10000 |  | 
16 | CC1C(=O)Nc2nccc(-c3cc(N4CCNCC4)cc(C(F)(F)F)c3)c21 (stereo not drawn) [Example 25] | 31.6 to 100 | 50.1 | 7 | E (a ratio of between 5 and 10) | 316 to 1000 | 501 |  | 
17 | CC1(C)C(=O)Nc2nccc(-c3cc(C(F)(F)F)cc(N4CC5CC(C4)N5)n3)c21 [Example 150] | 31.6 to 100 | 63.1 | 13 | D (a ratio of between 10 and 20) | > 1000 | 1260 |  | 
18 | CC[C@H]1CN(c2cc(Cl)cc(-c3ccnc4c3[C@@](C)(OC)C(=O)N4)n2)CCN1 (single isomer, unassigned) [Example 152] | 3.16 to 10 | 6.31 | 11 | D (a ratio of between 10 and 20) |  |  | 7.1 | D (a measured pIC50 of between 7.0 and 7.5)
19 | CC1(Cc2ccccc2)C(=O)Nc2nccc(-c3cccc(N4CCNCC4)c3)c21 (stereo not drawn) [Example 49] | 316 to 1000 | 1000 | 1 | F (a ratio of between 1 and 5) | > 1000 | 3980 |  | 
20 | C[C@@]1(O)C(=O)Nc2nccc(-c3cc(C(F)(F)F)cc(N4CC[C@H]5OCCN[C@@H]5C4)n3)c21 (single isomer, unassigned) [Example 97] | 100 to 316 | 158 | 21 | C (a ratio of between 20 and 30) | > 1000 | 3980 |  | 
21 | CC[C@@]1(O)C(=O)Nc2nccc(-c3cc(C(F)(F)F)cc(N4CCNC[C@H]4C)n3)c21 (single isomer, unassigned) [Example 166] | 1 to 3.16 | 3.16 | 6 | E (a ratio of between 5 and 10) | 10 to 31.6 | 31.6 |  | 
22 | CC[C@H]1CN(c2cc(Cl)cc(-c3ccnc4c3C(C)(C)C(=O)N4)n2)CCN1 [Example 145] | 0.316 to 1 | 0.794 | 25 | C (a ratio of between 20 and 30) | 10 to 31.6 | 15.8 |  | 
23 | C[C@@H]1CN(c2cc(C(F)(F)F)cc(-c3ccnc4c3[C@](C)(O)C(=O)N4)n2)[C@@H](C)CN1 (single isomer, unassigned) [Example 118] | 10 to 31.6 | 25.1 | 12 | D (a ratio of between 10 and 20) | 100 to 316 | 251 |  | 
